This note sets out measurements from patent publication US7754721B2, “Arylpiperazine derivatives and uses thereof” (Roche Palo Alto LLC, priority 2006, dated 2010).

For the assay, the target named is T1, human serotonin transporter (hSERT) (Homo sapiens, UniProt P31645).
T1 construct: expressed in transfected cells; membranes prepared
In words: hSERT scintillation proximity assay, competition with [3H]-Citalopram. The assay is classed as binding. The settings on record: membranes of HEK-293 cells, Cheng-Prusoff. On the procedure:
The screening assay of this example was used to determine the affinity of ligands at the hSERT transporter by competition with [^3H]-Citalopram.
Scintillation Proximity Assay (SPA) works by bringing radioligand within close proximity to the bead's scintillant to stimulate light emission. In this assay, the receptor-containing membranes were pre-coupled to the SPA beads and the binding of the appropriate radioligand to the transporter was measured. The light emission was proportional to the amount of bound radioligand. Unbound radioligand produced no signal as a result of distant proximity to scintillant (lack of energy transfer). […]
Cell membranes were prepared using a membrane preparation buffer of 50 mM TRIS (pH 7.4). […] After a second centrifugation, the pellet was re-homogenized and brought to a final volume determined during the assay. […]
The % inhibition was calculated for each compound tested [(Compound counts per minute (CPM) at maximum concentration-Non-Specific CPM)/Total CPM*100]. […]
[formula] where max=total binding, min=non specific binding, x=concentration (M) of the tested compound and n=Hill slope. The inhibition dissociation constant (Ki) of each compound was determined according to the method of Cheng-Prusoff and then converted into negative logarithm (pKi) of the Ki.
Background: SPA uses beads or plates that emit light when radiolabelled molecules are held near them.

T1 sequence (P31645 whole entry): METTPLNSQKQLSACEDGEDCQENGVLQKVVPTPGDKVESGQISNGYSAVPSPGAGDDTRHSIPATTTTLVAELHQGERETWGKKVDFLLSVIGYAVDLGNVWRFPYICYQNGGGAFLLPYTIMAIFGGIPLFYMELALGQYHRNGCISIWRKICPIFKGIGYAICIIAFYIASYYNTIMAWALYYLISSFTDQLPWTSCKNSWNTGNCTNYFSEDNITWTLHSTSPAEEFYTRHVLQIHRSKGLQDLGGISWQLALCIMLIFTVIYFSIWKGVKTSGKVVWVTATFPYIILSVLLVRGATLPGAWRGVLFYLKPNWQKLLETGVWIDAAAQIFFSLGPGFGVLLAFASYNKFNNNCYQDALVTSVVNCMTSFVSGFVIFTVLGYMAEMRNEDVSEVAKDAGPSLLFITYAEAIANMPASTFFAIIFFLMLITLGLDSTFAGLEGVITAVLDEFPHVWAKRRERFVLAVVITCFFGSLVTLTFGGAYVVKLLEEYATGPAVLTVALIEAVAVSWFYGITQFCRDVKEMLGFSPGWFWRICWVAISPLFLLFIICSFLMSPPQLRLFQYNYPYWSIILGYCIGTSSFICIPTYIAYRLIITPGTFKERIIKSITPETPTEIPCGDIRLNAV

The Ki is a dissociation constant, usually derived from enzyme kinetics or from competition with a known ligand. For the compound `c1ccc(CC2CNCCN2c2ccc3cnccc3c2)cc1` (stereo not shown) [6-(2-Benzyl-piperazin-1-yl)-isoquinoline], the Ki is approximately 135 pM.
